Data as given in ChEMBL document CHEMBL6115048, “Uncovering α-Selectivity for Liver X Receptor Agonists for Lipotoxic Cancer Therapies” (J Med Chem, 2025).
Calls of active or inactive are those of the source. The calls are words filed in the database; no cut-off is given here.

Tests used:
[1] = target: T1, Peroxisome proliferator-activated receptor alpha (Homo sapiens) (UniProt Q07869); assay: Agonist activity at PPARalpha (unknown origin) transfected in human HepG2 cells co-transfected with renilla reniformis luciferase reporter at 10 uM incubated for 24 hrs by dual-luciferase reporter gene assay; type: cell-based
T1 sequence (whole entry): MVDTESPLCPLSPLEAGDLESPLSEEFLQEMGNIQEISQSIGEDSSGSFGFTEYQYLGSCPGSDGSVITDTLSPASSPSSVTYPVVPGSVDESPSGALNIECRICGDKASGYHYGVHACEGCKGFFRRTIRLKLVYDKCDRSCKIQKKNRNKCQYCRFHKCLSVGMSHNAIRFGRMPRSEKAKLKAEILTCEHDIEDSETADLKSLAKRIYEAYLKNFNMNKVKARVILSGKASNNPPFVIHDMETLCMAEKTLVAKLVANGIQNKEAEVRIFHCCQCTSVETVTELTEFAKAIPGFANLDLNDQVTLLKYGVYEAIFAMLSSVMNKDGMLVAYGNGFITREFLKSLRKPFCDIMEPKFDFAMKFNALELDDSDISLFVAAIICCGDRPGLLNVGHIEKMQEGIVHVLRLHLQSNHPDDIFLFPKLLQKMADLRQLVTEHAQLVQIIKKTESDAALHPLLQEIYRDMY

[2] = target: T2, Estrogen receptor (Homo sapiens) (UniProt P03372); assay: Agonist activity at ERalpha (unknown origin) transfected in human HepG2 cells co-transfected with renilla reniformis luciferase reporter at 10 uM incubated for 24 hrs by dual-luciferase reporter gene assay; type: cell-based
T2 sequence (whole entry): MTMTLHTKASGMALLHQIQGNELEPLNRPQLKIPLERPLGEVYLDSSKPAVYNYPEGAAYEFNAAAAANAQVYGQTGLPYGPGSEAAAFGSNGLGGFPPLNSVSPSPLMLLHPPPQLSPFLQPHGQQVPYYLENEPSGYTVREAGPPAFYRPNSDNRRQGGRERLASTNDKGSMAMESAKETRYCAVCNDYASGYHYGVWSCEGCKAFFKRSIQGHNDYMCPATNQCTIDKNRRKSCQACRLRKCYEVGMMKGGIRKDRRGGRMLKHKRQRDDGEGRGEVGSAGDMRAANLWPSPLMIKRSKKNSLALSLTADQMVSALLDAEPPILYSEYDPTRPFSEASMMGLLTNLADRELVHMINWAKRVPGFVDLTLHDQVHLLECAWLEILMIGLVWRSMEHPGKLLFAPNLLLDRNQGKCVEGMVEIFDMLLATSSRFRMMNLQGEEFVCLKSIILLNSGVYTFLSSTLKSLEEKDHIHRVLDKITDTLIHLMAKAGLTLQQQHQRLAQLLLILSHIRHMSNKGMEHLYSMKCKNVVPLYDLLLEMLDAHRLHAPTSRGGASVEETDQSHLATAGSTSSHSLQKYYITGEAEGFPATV

[3] = target: Estrogen receptor beta (Homo sapiens) (UniProt Q92731); assay: Agonist activity at ERbeta (unknown origin) transfected in human HepG2 cells co-transfected with renilla reniformis luciferase reporter at 10 uM incubated for 24 hrs by dual-luciferase reporter gene assay; type: cell-based
[4] = target: T3, Aryl hydrocarbon receptor (Homo sapiens, UniProt P35869); assay: Agonist activity at AhR (unknown origin) transfected in human HepG2 cells co-transfected with renilla reniformis luciferase reporter at 10 uM incubated for 24 hrs by dual-luciferase reporter gene assay; type: cell-based; details: hepg2, 24 h
T3 sequence (P35869 whole entry): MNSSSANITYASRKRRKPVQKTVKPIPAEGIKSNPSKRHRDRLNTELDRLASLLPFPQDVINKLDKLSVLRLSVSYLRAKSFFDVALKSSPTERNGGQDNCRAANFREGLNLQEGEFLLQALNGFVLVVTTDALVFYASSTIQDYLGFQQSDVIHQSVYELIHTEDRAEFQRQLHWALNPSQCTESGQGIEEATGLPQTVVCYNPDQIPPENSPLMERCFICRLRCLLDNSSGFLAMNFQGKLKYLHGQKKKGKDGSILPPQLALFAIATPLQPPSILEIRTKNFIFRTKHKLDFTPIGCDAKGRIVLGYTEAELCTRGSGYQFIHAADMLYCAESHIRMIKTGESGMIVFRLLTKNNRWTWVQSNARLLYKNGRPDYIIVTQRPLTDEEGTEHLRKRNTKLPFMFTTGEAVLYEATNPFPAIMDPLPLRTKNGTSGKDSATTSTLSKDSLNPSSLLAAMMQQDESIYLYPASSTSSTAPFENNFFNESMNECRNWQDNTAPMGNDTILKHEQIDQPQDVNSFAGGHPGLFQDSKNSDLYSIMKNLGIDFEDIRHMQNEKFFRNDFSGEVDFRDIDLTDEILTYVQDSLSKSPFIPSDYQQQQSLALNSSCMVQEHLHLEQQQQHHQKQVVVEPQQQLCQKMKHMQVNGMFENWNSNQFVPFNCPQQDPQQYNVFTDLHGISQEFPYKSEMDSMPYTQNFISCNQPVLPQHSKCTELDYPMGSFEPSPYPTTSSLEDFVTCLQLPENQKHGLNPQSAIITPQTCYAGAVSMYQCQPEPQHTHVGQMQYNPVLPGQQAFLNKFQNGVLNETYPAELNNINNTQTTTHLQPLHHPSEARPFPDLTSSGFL

Hep 3B2 [5] = assay: Antiproliferative activity against human Hep3B cells assessed as reduction in cell viability measured after 5 days in presence of sorafenib by Celltiter-glo assay; type: functional, cell-based; details: 120 h
Hep 3B2 [6] = assay: Antiproliferative activity against human Hep3B cells assessed as reduction in cell viability measured after 5 days by Celltiter-glo assay; type: functional, cell-based; details: time 5.0 day
Hep 3B2 [7] = assay: Induction of endoplasmic reticulum (ER) stress in human Hep3B cells assessed as increase in GADD34 expression measured after 3 days in presence of sorafenib by Western blot analysis; type: functional, cell-based; details: time 3.0 day

Chain of Estrogen receptor beta (Homo sapiens) (Q92731 whole entry): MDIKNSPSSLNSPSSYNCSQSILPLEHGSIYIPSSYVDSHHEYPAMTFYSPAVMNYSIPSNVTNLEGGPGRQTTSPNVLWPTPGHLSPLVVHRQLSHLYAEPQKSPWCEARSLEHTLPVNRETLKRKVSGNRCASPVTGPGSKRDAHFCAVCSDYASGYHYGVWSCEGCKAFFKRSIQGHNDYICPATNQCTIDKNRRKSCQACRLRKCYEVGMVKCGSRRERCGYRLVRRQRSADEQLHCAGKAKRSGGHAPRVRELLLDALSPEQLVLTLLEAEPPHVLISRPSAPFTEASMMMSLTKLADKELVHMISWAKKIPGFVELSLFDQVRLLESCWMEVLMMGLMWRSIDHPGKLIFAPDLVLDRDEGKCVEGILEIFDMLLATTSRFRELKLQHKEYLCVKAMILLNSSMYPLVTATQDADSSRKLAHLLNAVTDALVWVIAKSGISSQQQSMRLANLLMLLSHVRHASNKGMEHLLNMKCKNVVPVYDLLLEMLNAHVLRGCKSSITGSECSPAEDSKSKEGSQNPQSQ

Activity [1]: inactive
Activity [2]: inactive
Activity [3]: inactive
Activity [4]: Not_active
SMILES: O=C1C(Nc2ccc(N3CCCCC3)cc2)=C(c2ccccc2)C(=O)N1Cc1ccccc1
EC50 (Hep 3B2 [5]): 1700 nM
Activity (Hep 3B2 [6]): inactive
Activity (Hep 3B2 [7]): Active
